{"source": "paper PMC4752462", "about": "(PLoS ONE, 2016)", "key": {"[1]": {"tested_on": "human liver microsomes", "assay": "in vitro", "type": "in vitro ADME", "conditions": "for EVG remaining: human, microsomes, 4 μM, pH 7.4", "description": "(§1) The reaction was carried out using human liver microsomes in 0.1 M potassium phosphate buffer at pH 7.4 as described previously. […] After pre-incubation at 37°C for 10 minutes, 3 mM final concentration of NADPH was added to initiate the metabolic reaction. After 7 minutes incubation at 37°C the reactions were terminated by adding 1:3 volumes of cold acetonitrile. For the time kinetic study, the reaction was terminated at various time points (0.0, 2.5, 5, 10, 15, 20, 30, and 60 minutes). […] The Prior to LCMS/MS analysis the analyte was extracted from the microsomes by a protein precipitation method as described previously. The concentrations of all the drugs were quantified using Ab Sciex Analyst® software. Microsomal kinetic data were analyzed using Michaelis-Menten and exponential decay equations. CYP3A4 inhibition data were evaluated by fitting the values to dose-response inhibition and calculated IC50 values were reported. All graphs were plotted and two-tailed t-tests were performed wherever appropriate using GraphPad Prism 5.01 (GraphPad, San Diego, CA). Significant differences between more than two groups analyzed with one-way ANOVA followed by Dunnett's multiple comparison tests using IBM […] version 20. […] To study the influence of alcohol consumption on EVG metabolism, 20 mM ethanol (physiological concentration in moderate drinker) was used to treat human liver microsomes. […] EVG degradation/metabolism at 4 μM followed a pseudo-first-order kinetic. Therefore, we fit the data to an exponential one phase decay equation to determine the apparent half-life (t1/2) and rate constant K."}, "[2]": {"assay": "in vitro", "type": "in vitro ADME, human", "conditions": "human, microsomes", "description": "as §1"}, "[3]": {"tested_on": "human liver microsomes", "assay": "Substrate (saturation) kinetics of EVG metabolism in human liver microsomes", "type": "in vitro ADME", "description": "(§2) The reaction was carried out using human liver microsomes in 0.1 M potassium phosphate buffer at pH 7.4 as described previously. […] After pre-incubation at 37°C for 10 minutes, 3 mM final concentration of NADPH was added to initiate the metabolic reaction. After 7 minutes incubation at 37°C the reactions were terminated by adding 1:3 volumes of cold acetonitrile. For the time kinetic study, the reaction was terminated at various time points (0.0, 2.5, 5, 10, 15, 20, 30, and 60 minutes). […] The Prior to LCMS/MS analysis the analyte was extracted from the microsomes by a protein precipitation method as described previously. The concentrations of all the drugs were quantified using Ab Sciex Analyst® software. Microsomal kinetic data were analyzed using Michaelis-Menten and exponential decay equations. CYP3A4 inhibition data were evaluated by fitting the values to dose-response inhibition and calculated IC50 values were reported. All graphs were plotted and two-tailed t-tests were performed wherever appropriate using GraphPad Prism 5.01 (GraphPad, San Diego, CA). Significant differences between more than two groups analyzed with one-way ANOVA followed by Dunnett's multiple comparison tests using IBM […] version 20."}, "[4]": {"assay": "Substrate (saturation) kinetics of EVG metabolism in human liver microsomes", "type": "in vitro ADME", "conditions": "human", "description": "as §2"}, "[5]": {"assay": "Sample stability of EVG in the microsomal matrix (bench-top, freeze-thaw, long-term storage)", "type": "physicochemical", "description": "Accuracy and precision of the method were determined by analyzing QC samples that cover the calibration curve range of the analyte. The low QC concentration was selected to be three times the LLOQ as per the FDA guidelines. Inter-day precision and accuracy were calculated by analyzing extracted calibration standards and three QCs at different concentrations as described in our previous publications. […] Carry-over (memory) effect was determined by assessing the extracted blank immediately after the upper limit of quantification (ULOQ, 1000 ng/ml). Matrix effect (ME), recovery efficiency (RE), and process efficiency (PE) were explored by following a previously proposed methodology. The three sets of samples used for the experiments were as follows: A, pure standard solutions of EVG; B, blank microsomal extraction spiked with pure standard solutions of EVG; C, microsomal samples spiked with pure standard solutions of EVG and extracted at the low, medium, and high QC concentrations. After quantitation of the analyte the parameters were calculated using the following formulae. ME (%) = B/A x 100, RE (%) = C/B x 100, PE (%) = C/A x 100. Furthermore, analyte peak areas were corrected with their respective IS peak areas and reported. Finally, sample stability studies for the EVG in the microsomal matrix was tested using low, medium, and high QCs at the bench-top (25°C) and storage conditions (-80°C). Analyte concentrations in these samples were measured after fresh preparation and at 12, 24, and 48 hours. […] For the long-term storage, samples were analyzed after storing them at the -80°C for three months. All determined concentrations were compared with freshly prepared QCs and reported the variation as a percentage of change from the freshly made QCs. The incurred sample reanalysis was also done by randomly selecting 10% of the total samples analyzed. The obtained data was compared with the first time results of the samples to determine whether the variability is beyond ± 20%."}, "[6]": {"tested_on": "CYP3A4", "conditions": "based on the EVG metabolic activity; cited from earlier work"}, "[7]": {"tested_on": "CYP3A", "design": "method as in PMID 21348537", "conditions": "read-out: IC50 for CYP3A inhibition; cited from earlier work"}, "[8]": {"conditions": "three values per group used for statistics"}}, "note": "“And” between values parts separate entries of the source, which are not always exact repeats. Equal entries are not always repeated.", "data": [{"compound": "COc1cc2c(cc1Cc1cccc(Cl)c1F)c(=O)c(C(=O)O)cn2[C@H](CO)C(C)C", "note": "[EVG, Elvitegravir]", "values": [{"measurement": "Rate Constant 'K'", "setting": "[1]; With Ethanol, three values per group", "result": 0.05}, {"measurement": "EVG remaining", "setting": "[1]; 0 h", "result": "100 % of control"}, {"measurement": "EVG remaining", "setting": "[1]; 2.5 min", "result": "96.6 % of control"}, {"measurement": "EVG remaining", "setting": "[1]; 5 min", "result": "93.5 % of control"}, {"measurement": "EVG remaining", "setting": "[1]; 10 min", "result": "77.8 % of control"}, {"measurement": "EVG remaining", "setting": "[1]; 0.25 h", "result": "63.6 % of control"}, {"measurement": "EVG remaining", "setting": "[1]; 20 min", "result": "45.2 % of control"}, {"measurement": "EVG remaining", "setting": "[1]; 0.5 h", "result": "30.4 % of control"}, {"measurement": "EVG remaining", "setting": "[1]; 1 h", "result": "14.2 % of control"}, {"measurement": "half-life at 4 μM", "setting": "[2]; pH 7.4, Half-life", "result": 12.1, "unit": "min"}, {"measurement": "half-life at 4 μM", "setting": "[2]; pH 7.4, Half-life (minutes)", "result": "17 ± 1", "unit": "min"}, {"measurement": "enzyme activity (Fig 4 data)", "setting": "[3]; EVG 4", "result": 3.7, "unit": "μmol/min/mg protein"}, {"measurement": "enzyme activity (Fig 4 data)", "setting": "[3]; EVG 8", "result": 7.7, "unit": "μmol/min/mg protein"}, {"measurement": "enzyme activity (Fig 4 data)", "setting": "[3]; EVG 20", "result": 19.5, "unit": "μmol/min/mg protein"}, {"measurement": "enzyme activity (Fig 4 data)", "setting": "[3]; EVG 40", "result": 38.6, "unit": "μmol/min/mg protein"}, {"measurement": "enzyme activity (Fig 4 data)", "setting": "[3]; EVG 60", "result": 55.9, "unit": "μmol/min/mg protein"}, {"measurement": "enzyme activity (Fig 4 data)", "setting": "[3]; EVG 80", "result": 68.9, "unit": "μmol/min/mg protein"}, {"measurement": "enzyme activity (Fig 4 data)", "setting": "[3]; EVG 100", "result": 74.7, "unit": "μmol/min/mg protein"}, {"measurement": "enzyme activity (Fig 4 data)", "setting": "[3]; EVG 120", "result": 71.9, "unit": "μmol/min/mg protein"}, {"measurement": "enzyme activity (Fig 4 data)", "setting": "[3]; EVG 160", "result": 70.9, "unit": "μmol/min/mg protein"}, {"measurement": "enzyme activity (Fig 4 data)", "setting": "[3]; EVG 200", "result": 84.3, "unit": "μmol/min/mg protein"}, {"measurement": "Vmax", "setting": "[3]; EVG alone", "result": "162 ± 16", "unit": "μmol/min/mg protein"}, {"measurement": "Vmax", "setting": "[3]; in the presence of ethanol", "result": "221 ± 18", "unit": "μmol/min/mg protein"}, {"measurement": "Km", "setting": "[3]; [8]", "result": "65.2 µM and 68.7 µM"}, {"measurement": "Vmax", "setting": "[3]; [8]", "result": "162.1 and 157.8 and 158.3"}, {"measurement": "Vmax", "setting": "[3]; when COBI is present", "result": "308 ± 45", "unit": "μmol/min/mg protein"}, {"measurement": "Km at 7 min", "setting": "[4]; pH 7.4, EVG 4-200 μM, COBI at same ratio, EtOH 20 mM", "result": "68 ± 17", "unit": "µM"}, {"measurement": "Km at 7 min", "setting": "[4]; pH 7.4, in the presence of ethanol", "result": "115 ± 18", "unit": "µM"}, {"measurement": "Km at 7 min", "setting": "[4]; pH 7.4, three values per group used for statistics", "result": 68.3, "unit": "µM"}, {"measurement": "Km at 7 min", "setting": "[4]; pH 7.4, when COBI is present", "result": "189 ± 46", "unit": "µM"}, {"measurement": "long term storage stability", "setting": "[5]; -80°C, 3-4 months, data not shown", "result": "did not exhibit significant loss in the concentration"}, {"measurement": "change from freshly prepared quality controls", "setting": "[5]; Freeze thaw (-80°C), cycle 1, High QC 3.50 μM", "result": -3, "unit": "%"}, {"measurement": "change from freshly prepared quality controls", "setting": "[5]; Freeze thaw (-80°C), cycle 1, Low QC 0.040 μM", "result": -12, "unit": "%"}, {"measurement": "change from freshly prepared quality controls", "setting": "[5]; Freeze thaw (-80°C), cycle 1, Medium QC 0.75 μM", "result": 5, "unit": "%"}, {"measurement": "change from freshly prepared quality controls", "setting": "[5]; Freeze thaw (-80°C), cycle 2, High QC 3.50 μM", "result": 3, "unit": "%"}, {"measurement": "change from freshly prepared quality controls", "setting": "[5]; Freeze thaw (-80°C), cycle 2, Low QC 0.040 μM", "result": -7, "unit": "%"}, {"measurement": "change from freshly prepared quality controls", "setting": "[5]; Freeze thaw (-80°C), cycle 2, Medium QC 0.75 μM", "result": 3, "unit": "%"}, {"measurement": "change from freshly prepared quality controls", "setting": "[5]; Freeze thaw (-80°C), cycle 3, High QC 3.50 μM", "result": -15, "unit": "%"}, {"measurement": "change from freshly prepared quality controls", "setting": "[5]; Freeze thaw (-80°C), cycle 3, Low QC 0.040 μM", "result": -3, "unit": "%"}, {"measurement": "change from freshly prepared quality controls", "setting": "[5]; Freeze thaw (-80°C), cycle 3, Medium QC 0.75 μM", "result": 5, "unit": "%"}, {"measurement": "change from freshly prepared quality controls", "setting": "[5]; Room Temp (25°C), 0 hours, High QC 3.50 μM", "result": 0, "unit": "%"}, {"measurement": "change from freshly prepared quality controls", "setting": "[5]; Room Temp (25°C), 0 hours, Low QC 0.040 μM", "result": 0, "unit": "%"}, {"measurement": "change from freshly prepared quality controls", "setting": "[5]; Room Temp (25°C), 0 hours, Medium QC 0.75 μM", "result": 0, "unit": "%"}, {"measurement": "change from freshly prepared quality controls", "setting": "[5]; Room Temp (25°C), 12 hours, High QC 3.50 μM", "result": 0.1, "unit": "%"}, {"measurement": "change from freshly prepared quality controls", "setting": "[5]; Room Temp (25°C), 12 hours, Low QC 0.040 μM", "result": -14, "unit": "%"}, {"measurement": "change from freshly prepared quality controls", "setting": "[5]; Room Temp (25°C), 12 hours, Medium QC 0.75 μM", "result": 9, "unit": "%"}, {"measurement": "change from freshly prepared quality controls", "setting": "[5]; Room Temp (25°C), 24 hours, High QC 3.50 μM", "result": 1.8, "unit": "%"}, {"measurement": "change from freshly prepared quality controls", "setting": "[5]; Room Temp (25°C), 24 hours, Low QC 0.040 μM", "result": -10, "unit": "%"}, {"measurement": "change from freshly prepared quality controls", "setting": "[5]; Room Temp (25°C), 24 hours, Medium QC 0.75 μM", "result": 4, "unit": "%"}, {"measurement": "change from freshly prepared quality controls", "setting": "[5]; Room Temp (25°C), 48 hours, High QC 3.50 μM", "result": -0.4, "unit": "%"}, {"measurement": "change from freshly prepared quality controls", "setting": "[5]; Room Temp (25°C), 48 hours, Low QC 0.040 μM", "result": -5, "unit": "%"}, {"measurement": "change from freshly prepared quality controls", "setting": "[5]; Room Temp (25°C), 48 hours, Medium QC 0.75 μM", "result": 7, "unit": "%"}, {"measurement": "stability at room temperature", "setting": "[5]; microsomal matrix, over 48 hours", "result": "considered stable"}, {"measurement": "percentage of variation in the freeze-thaw stability studies", "setting": "[5]; up to 3-4 freeze-thaw cycles", "result": "less than 15%"}, {"measurement": "Km", "setting": "[6]", "result": 21.5, "unit": "µM"}, {"measurement": "IC50", "setting": "[7]", "result": 63, "unit": "µM"}]}]}
